From patent US20240325495A1, “FUSION PROTEINS FOR THE TREATMENT OF DISEASE” (Bristol-Myers Squibb Company, priority 2020, published 2024)

Experiments:
rats [1] = assay: Single-dose exploratory SC study in rats; assay type: in vivo
Treg = assay: Phase 1 single ascending dose study, Cohort A4; assay type: in vivo, human; details: Cohort A4, 3 mg single intravenous infusion, compared to placebo; preliminary
Protocol: BMS-986326 is assessed in a Phase 1, randomized, double-blind, placebo-controlled, single ascending doses (SAD) study to evaluate the safety, tolerability, pharmacokinetics (PK), and pharmacodynamics (PD) of single doses of BMS-986326 in healthy adult participants.
Blood samples are collected and measured by flow cytometry for quantitating immune cells such as Treg, Tconv, follicular helper T cells (Tfh), B cells, and NK cells by surface markers that may include, but not limited to, cell lineage and activation markers CD3, CD4, CD8, CD14, CD25, CD39, CD45, CD45RA, CD56, CD127, Foxp3, Helios, CXCR5, CCR7, and Ki67. Blood samples are also collected and measured by flow cytometry for determining BMS-986326 engagement to Treg, Tconv, CD8 T cells, and NK cells identified by pSTAT5.
Preliminary Results from BMS-986326 Cohort A4 (3 mg Single Intravenous Infusion)

rats and monkeys = assay: Toxicity studies in rats and monkeys: common PD and safety findings; assay type: in vivo; details: GLP pivotal nonclinical studies
Excerpt: (§1) The single- and repeat-dose toxicity of BMS-986326 were characterized in a series of studies in rats for up to 2 weeks and in monkeys up to 12 weeks using selected dosing frequencies. Pivotal good laboratory practice (GLP) repeat-dose studies in both species employed SC administration of BMS-986326 and consisted of two 2-week studies in rats using differing dose frequencies (once weekly [QW] vs twice weekly [2QW]), a 2-week once weekly dosing study in monkeys, and a 12-week (once every 3 week, Q3W) dosing study in monkeys. In addition, single-dose exploratory studies were initially completed in both rats and monkeys to explore the tolerability of BMS-986326, and a single-dose GLP IV toxicity and cardiovascular safety study was also completed in telemeterized monkeys using IV dosing to support IV administration in the first-in-human (FIH) single-ascending dose (SAD) study (IM034001).
Intended and unintended PD effects occurred in a dose-dependent manner across all doses of each toxicity study and were generally more pronounced in monkeys than in rats. As an IL-2R agonist, BMS-986326 induced maximal phosphorylation of STAT5 in Treg cells (72% to 95%) across all doses in rats and monkeys, increased Treg cells (up to 63× in monkeys) and/or CD25 expression on CD4 Tregs (up to 4.5× in rats), and raised serum levels of IL-10 (up to 2× in rats and 87× in monkeys). […]

monkeys [2] = assay: Single-dose exploratory tolerability PK/PD study, SC, monkeys
rats [3] = assay: Toxicity studies in rats: ADA and PD effects; assay type: in vivo
Excerpt: as §1
(§2) In rats, BMS-986326 was noted to be highly immunogenic, with ADA formation occurring in 84% of BMS-986326-treated rats. In general, the presence of ADA was associated with reduced exposure and loss of PD activity, but was not associated with toxicity.
Intended and unintended PD effects occurred in a dose-dependent manner across all doses of each toxicity study and were generally more pronounced in monkeys than in rats. As an IL-2R agonist, BMS-986326 induced maximal phosphorylation of STAT5 in Treg cells (72% to 95%) across all doses in rats and monkeys, increased Treg cells (up to 63× in monkeys) and/or CD25 expression on CD4 Tregs (up to 4.5× in rats), and raised serum levels of IL-10 (up to 2× in rats and 87× in monkeys). In addition to the desired pharmacologic effects on Tregs, BMS-986326 also led to unintended effects including dose-dependent activation of conventional CD4 and CD8 T cell populations and NK cells, with concomitant elevation of serum IL-5, MCP-1, and perforin. At higher doses of BMS-986326 when dosed weekly in monkeys, increases in B cells (1.6×) and other inflammatory cytokines such as […] (7.9×), IL-1Ra (49×), and IL-6 (5.1×) were also noted. […]

[4] = Human PK/PD, exposure and efficacious dose projection; details: projected peak
Protocol: Human PK was projected using allometric scaling of monkey PK parameters and was assumed to have similar SC bioavailability as in monkeys.
The first approach was based on maximal preclinical efficacy in mouse models dosed with mIL2-CD25.
The selection of the starting dose of 0.1 mg IV is based on the available preclinical PK, toxicology, and pharmacology data. PK/PD modeling and simulations were performed to generate predicted human PK and PD profiles from nonclinical data.

monkeys [5] = assay: Toxicity studies in monkeys: ADA and PD effects; assay type: in vivo
Excerpt: as §1, §2
Intended and unintended PD effects occurred in a dose-dependent manner across all doses of each toxicity study and were generally more pronounced in monkeys than in rats. As an IL-2R agonist, BMS-986326 induced maximal phosphorylation of STAT5 in Treg cells (72% to 95%) across all doses in rats and monkeys, increased Treg cells (up to 63× in monkeys) and/or CD25 expression on CD4 Tregs (up to 4.5× in rats), and raised serum levels of IL-10 (up to 2× in rats and 87× in monkeys). In addition to the desired pharmacologic effects on Tregs, BMS-986326 also led to unintended effects including dose-dependent activation of conventional CD4 and CD8 T cell populations and NK cells, with concomitant elevation of serum IL-5, MCP-1, and perforin. At higher doses of BMS-986326 when dosed weekly in monkeys, increases in B cells (1.6×) and other inflammatory cytokines such as […] (7.9×), IL-1Ra (49×), and IL-6 (5.1×) were also noted. These inflammatory cytokines were not elevated when lower doses of BMS-986326 were given less frequently (Q3W) in the 12-week monkey toxicity study.

monkeys [6] = assay: 2-week toxicity study in monkeys, weekly SC

Substance: BMS-986326: recombinant fusion protein of human IL2 and extracellular domain of human CD25, (GGGS)3 linker, non-covalent self-blocking homodimer
- dose not tolerated (morbidity or death on Day 5) (rats [1]; male rats, single SC dose): ≥ 25 mg/kg/day
- mean AUC [0-96 h] (rats [1]; rats, 5 mg/kg): 501 µg·h/mL
- dose with no adverse effects observed (rats [1]; rats, single SC dose): 5 mg/kg
- mean AUC [0-96 h] at not tolerated doses (rats [1]; rats, ≥25 mg/kg/day): ≥ 2,080 μg·h/mL
- Treg versus baseline levels (Treg): increased from baseline levels
- capillary leak syndrome (CLS) (rats and monkeys): has not been observed
- expansion and proliferation of Tconv and CD8+ T cells (monkeys [2]; 2 highest doses tested): dose-dependent expansion and proliferation
- fold increase of % Treg above pre-dose at peak (monkeys [2]; single SC […]): 4.8 fold
- dose not tolerated (monkeys [2]; single SC dose): 2.5 mg/kg
- well tolerated doses (monkeys [2]; single SC dose): up to 0.75 mg/kg
- ADA formation, % of treated rats (rats [3]): 84%
- increase in CD25 expression on CD4 Tregs (rats [3]): up to 4.5 ×
- increase in serum levels of IL-10 (rats [3]): up to 2 ×
- Fold-change CD8+ ([4]; 0.1 mg IV): <2 fold
- Fold-change Tregs ([4]; 0.1 mg IV): <2 fold
- Fold-change CD8+ ([4]; 0.3 mg IV): <2 fold
- Fold-change Tregs ([4]; 0.3 mg IV): <2 fold
- Fold-change CD8+ ([4]; 1 mg IV): <2 fold
- Fold-change Tregs ([4]; 1 mg IV): 2-4 fold
- Fold-change CD8+ ([4]; 1 mg SC): <2 fold
- Fold-change Tregs ([4]; 1 mg SC): 2-3 fold
- Fold-change CD8+ ([4]; 3 mg IV): <2 fold
- Fold-change Tregs ([4]; 3 mg IV): 4-8 fold
- Fold-change CD8+ ([4]; 3 mg SC): <2 fold
- Fold-change Tregs ([4]; 3 mg SC): 3-5 fold
- Fold-change CD8+ ([4]; 6 mg IV): ~2 fold
- Fold-change Tregs ([4]; 6 mg IV): 7-15 fold
- Fold-change CD8+ ([4]; 6 mg SC): <2 fold
- Fold-change Tregs ([4]; 6 mg SC): 4-8 fold
- Fold-change CD8+ ([4]; 8 mg SC): ~2 fold
- Fold-change Tregs ([4]; 8 mg SC): 5-10 fold
- Fold-change CD8+ ([4]; 9 mg IV (optional Cohort A6)): ~2 fold
- Fold-change Tregs ([4]; 9 mg IV (optional Cohort A6)): 10-20 fold
- increase in Treg cells (monkeys [5]): up to 63 ×
- increase in serum levels of IL-10 (monkeys [5]): ≤ 87 ×
- increase in B cells (monkeys [5]; higher doses dosed weekly): 1.6 ×
- increase in IFN-7 (monkeys [5]; higher doses dosed weekly): 7.9 ×
- increase in IL-1Ra (monkeys [5]; higher doses dosed weekly): 49 ×
- increase in IL-6 (monkeys [5]; higher doses dosed weekly): 5.1 ×
- ADA development (monkeys [5]; pivotal toxicity studies): generally did not develop
- mean AUC[0-168 h] at NOAEL (monkeys [6]; 0.125 mg/kg/week): 132 µg·h/mL
- NOAEL (monkeys [6]; 2-week weekly SC): 0.125 mg/kg/week
- clinically tolerated doses (monkeys [6]; weekly SC, 2 weeks): ≤ 0.25 mg/kg
